In assay [1] the test system is Semliki Forest Virus (SFV). Nature of the assay: Semliki Forest Virus infection of HL734 cells, immunocytochemistry. Type of assay: cell-based. Conditions: concentrations as in footnote d. An excerpt:
(§1) FIG. 2. Ability to inhibit infection by compounds that interact with human aminopeptidase N. Panel a: HL734 cells were infected with CMV strain RC256 in the presence of serial dilutions of either U71 (▪) or control mouse ascites ([]). Infection was quantitatively determined by spectrophotometric measurement of the cleavage of p-nitrophenyl-β-D-galactopyranoside by β-gal. Panel b: HL734 were infected with CMV strain AD169 (▪) or Semliki Forest Virus (SFV) ([]) in the presence of increasing concentration of bestatin. Infection was quantitatively determined by immunocytochemistry using an antibody to the mIE protein of CMV or immune serum to SFV and enumeration of infected calls. Panel c: the binding of ^35S-HCMV to MRC-5 cells in the presence of mouse IgG (X) or antibody to APN (∘). Panel d: the aminopeptidase N activity on the surface of HL734 (▪), NIH-3T3 (∘), hAPN-3T3 ([]), or hAPNmut-3T3 (Δ) cells expressed as optical density of reaction product p-nitroanilide.
Method. Infection of HL734 with CMV RC256 was performed as described in FIG. 1 in the presence of serial dilutions of either UT71 or a control mouse ascites. Cells were washed, fixed with glutaraldhyde and assayed for β-gal expression by incubation with p-nitrophenyl-β-D-galactopyranoside (1 mg/ml) and the production of p-nitrophenol was measured spectrophotometrically at 410 nm. To measure the effect of aminopeptidase inhibitors on viral infection, HL734 were preincubated with increasing concentrations of bestatin for 1 hour at 37° C., infected with CMV strain AD169 at an MOI=1-10 or SFV at an MOI=30 for 1 hour at 37° C., washed, and incubated in fresh media for six hours at 37° C. After fixation in ice cold acetone/methanol (1/1), CMV nuclear antigens were detected with a mouse monoclonal to the 72K CMV mIE protein (NEW/Dupont, Inc.) followed by a phycoerythrine-labelled F(ab′)2 fragment of rabbit-anti mouse IgG Dakopatts, Inc). […] Binding of HCMV to MRC-5 cells was carried out by incubating increasing concentration of ^35S-HCMV with MRC-5 cells for 2 hours at 4° C. […] Cells were washed five times with hepes-buffered saline, solubilized with 0.5 M NaOH, and cell-associated ^35S-labelled virions was measured quantitatively by liquid scintillation counting. Aminopeptidase activity on intact cells was measured by plating 1-5×10^4 cells in 96-well plates, incubating overnight in fresh media, and the washed and incubated with alanine-p-nitroanilide (6 mM) at 37° C. At various times, the free p-nitroanilide released was measured spectrophoto-metrically at 410 nm. The aminopeptidase activity was normalized to cell number measured by BCA protein assay (Pierce). All measurements were determined in triplicate.

Assay [2] has as its target T1, human aminopeptidase N (Homo sapiens, UniProt P15144).
T1 construct: endogenous in cells
Nature of the assay: Aminopeptidase activity on intact cells with substrate alanine-p-nitroanilide. Conditions: concentrations as in footnote d. Type of assay: cell-based. The method, then:
(§2) Method. Infection of HL734 with CMV RC256 was performed as described in FIG. 1 in the presence of serial dilutions of either UT71 or a control mouse ascites. Cells were washed, fixed with glutaraldhyde and assayed for β-gal expression by incubation with p-nitrophenyl-β-D-galactopyranoside (1 mg/ml) and the production of p-nitrophenol was measured spectrophotometrically at 410 nm. To measure the effect of aminopeptidase inhibitors on viral infection, HL734 were preincubated with increasing concentrations of bestatin for 1 hour at 37° C., infected with CMV strain AD169 at an MOI=1-10 or SFV at an MOI=30 for 1 hour at 37° C., washed, and incubated in fresh media for six hours at 37° C. After fixation in ice cold acetone/methanol (1/1), CMV nuclear antigens were detected with a mouse monoclonal to the 72K CMV mIE protein (NEW/Dupont, Inc.) followed by a phycoerythrine-labelled F(ab′)2 fragment of rabbit-anti mouse IgG Dakopatts, Inc). […] Binding of HCMV to MRC-5 cells was carried out by incubating increasing concentration of ^35S-HCMV with MRC-5 cells for 2 hours at 4° C. Incubation was carried out in the presence of mouse IgG (Sigma, Inc.) or anti-leuM7 (Becton Dickinson, Inc.) at a concentration of 16 μg/ml. Cells were washed five times with hepes-buffered saline, solubilized with 0.5 M NaOH, and cell-associated ^35S-labelled virions was measured quantitatively by liquid scintillation counting. Aminopeptidase activity on intact cells was measured by plating 1-5×10^4 cells in 96-well plates, incubating overnight in fresh media, and the washed and incubated with alanine-p-nitroanilide (6 mM) at 37° C. At various times, the free p-nitroanilide released was measured spectrophoto-metrically at 410 nm. The aminopeptidase activity was normalized to cell number measured by BCA protein assay (Pierce). All measurements were determined in triplicate.
To investigate whether the enzymatic activity of APN is necessary for CMV infection, four different aminopeptidase inhibitors, actinonin, bestatin, 2,2′-dipyridyl and 1,10-phenanthroline, were evaluated for their effect on enzymatic activity and CMV infection bestatin and actinonin are competitive inhibitors of arinoneptidases, ard 1,10-phenanthroline and 2,2′-dipyridyl inhibit aminopeptidase activity by chelating zinc required for enzyme function. […] Toxicity of these substances, measured by trypan blue uptake in cells treated with the inhibitors, was less than 10% in the highest concentrations used (data not shown).

For assay [3], the system named is CMV strain AD169. Nature of the assay: CMV AD169 infection of HL734 cells in the presence of aminopeptidase inhibitors, mIE immunocytochemistry. Format: cell-based, human cytomegalovirus.
Source text: as §1, with “Ability to inhibit infection by compounds that interact with human aminopeptidase N. Panel a: HL734 cells were infected with CMV strain RC256 in the presence of serial dilutions of either U71 (▪) or control mouse ascites ([]).” left out
as §2
To investigate whether the enzymatic activity of APN is necessary for CMV infection, four different aminopeptidase inhibitors, actinonin, bestatin, 2,2′-dipyridyl and 1,10-phenanthroline, were evaluated for their effect on enzymatic activity and CMV infection bestatin and actinonin are competitive inhibitors of arinoneptidases, ard 1,10-phenanthroline and 2,2′-dipyridyl inhibit aminopeptidase activity by chelating zinc required for enzyme function.

Where [4] appears, read: Human betaherpesvirus 5, AD169, read-out: 50% inhibitory dose for CMV infection.
[5] abbreviates: chemical inhibitors at maximum non-toxic concentration: actinonin 5.45 mM, bestatin 4.35 mM, 1,10-phenanthroline 0.45 mM, 2,2′-dipyridyl 3.74 mM.

Where two headings read alike, the source gives them in different places.

T1 sequence (P15144 whole entry): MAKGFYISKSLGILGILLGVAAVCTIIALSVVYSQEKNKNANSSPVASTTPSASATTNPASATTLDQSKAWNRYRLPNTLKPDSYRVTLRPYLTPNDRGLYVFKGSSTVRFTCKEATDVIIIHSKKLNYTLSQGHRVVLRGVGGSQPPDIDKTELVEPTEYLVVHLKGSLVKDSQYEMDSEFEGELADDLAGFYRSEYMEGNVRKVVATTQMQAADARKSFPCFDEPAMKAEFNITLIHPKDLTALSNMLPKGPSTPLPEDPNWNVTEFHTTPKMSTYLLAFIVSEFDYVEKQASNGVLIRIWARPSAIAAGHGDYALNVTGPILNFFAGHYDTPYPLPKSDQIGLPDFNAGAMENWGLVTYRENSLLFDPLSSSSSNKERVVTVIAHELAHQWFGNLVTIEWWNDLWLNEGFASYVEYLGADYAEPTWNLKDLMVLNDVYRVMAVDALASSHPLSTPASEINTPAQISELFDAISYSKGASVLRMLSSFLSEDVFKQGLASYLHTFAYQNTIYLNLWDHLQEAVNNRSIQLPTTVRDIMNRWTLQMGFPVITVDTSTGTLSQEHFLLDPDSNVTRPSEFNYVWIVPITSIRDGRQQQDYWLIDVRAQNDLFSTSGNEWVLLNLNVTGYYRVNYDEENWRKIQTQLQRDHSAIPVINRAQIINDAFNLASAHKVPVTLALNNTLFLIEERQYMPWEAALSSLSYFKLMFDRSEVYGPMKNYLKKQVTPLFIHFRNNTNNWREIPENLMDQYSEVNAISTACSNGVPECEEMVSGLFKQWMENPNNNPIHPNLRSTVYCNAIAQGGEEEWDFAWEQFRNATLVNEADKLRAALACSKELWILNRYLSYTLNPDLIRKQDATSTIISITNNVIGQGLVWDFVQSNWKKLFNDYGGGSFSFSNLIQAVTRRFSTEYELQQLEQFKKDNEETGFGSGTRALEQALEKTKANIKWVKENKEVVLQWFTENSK

For `c1cnc2c(c1)ccc1cccnc12` [1,10-phenanthroline], the “Inhibition of SFV Infection” value in assay [1] is “− (− = no inhibition)”. In assay [2], the “Inhibition of aminopeptidase activity” value is reported as “+ (+ = >50 inhibition compared to mouse IgG control)”. In addition, in assay [3] (setting [4]), the IC50 stood at 250 µM. For the same compound, the “Inhibition of CMV Infection” value in assay [3] (setting [5]) is given as “+ (+ = >50 inhibition compared to mouse IgG control)”.

For the compound `c1ccc(-c2ccccn2)nc1` [2,2′-dipyridyl], the “Inhibition of SFV Infection” value in assay [1] is “− (− = no inhibition)”. Besides, the “Inhibition of aminopeptidase activity” value in assay [2] is listed as “+ (+ = >50 inhibition compared to mouse IgG control)”. Moreover, the IC50 in assay [3] (HL734 cells, CMV AD169, read-out: 50% inhibitory dose for CMV infection) was determined as 2800 µM. In addition, the “Inhibition of CMV Infection” value in assay [3] (setting [5]) is given as “+ (+ = >50 inhibition compared to mouse IgG control)”.

With `CCCCC[C@H](CC(=O)NO)C(=O)N[C@H](C(=O)N1CCC[C@H]1CO)C(C)C` [actinonin], the “Inhibition of SFV Infection” value in assay [1] is given as “− (− = no inhibition)”. Further, in assay [2], the “Inhibition of aminopeptidase activity” value is recorded as “+ (+ = >50 inhibition compared to mouse IgG control)”. Also, the inhibition (in general, the drop in the measured response relative to a control, in per cent) at 5450 µM in assay [3] (Human betaherpesvirus 5, AD169, chemical inhibitors at maximum non-toxic concentration: actinonin 5.45 mM, bestatin 4.35 mM, 1,10-phenanthroline 0.45 mM, 2,2′-dipyridyl 3.74 mM) was over 50%. The IC50 in assay [3] (Human betaherpesvirus 5, HL734 cells, CMV AD169, read-out: 50% inhibitory dose for CMV infection) stood at 3300 µM.

For `CC(C)C[C@H](NC(=O)[C@@H](O)[C@H](N)Cc1ccccc1)C(=O)O` [bestatin], in assay [1], the “Inhibition of SFV Infection” value is listed as “− (− = no inhibition)”. In assay [2], the “Inhibition of aminopeptidase activity” value was “+ (+ = >50 inhibition compared to mouse IgG control)”. In addition, the IC50 in assay [3] (setting [4]) is 2500 µM. For the same compound, in assay [3] (Human betaherpesvirus 5, AD169, read-out: Inhibition of CMV Infection), the inhibition at 4350 µM was over 50%.

For the origin of these results see US6511662B1, “Treatment of cytomegalovirus using aminopeptidase N” (priority 1993, dated 2003).
